Patent US8206983B2, “In vitro methods for the induction and maintenance of plant cell lines as single suspension cells with intact cell walls” (Dow AgroSciences, LLC., priority 2006, dated 2012)

Legend:
NT1 suspension cells = assay: Effects of colchicine on growth of NT1 suspension cells; format: cell-based, Nicotiana tabacum; details: 1 mM
Text: (§1) BY2 suspension-cultured cells were obtained from Japan tobacco and maintained in LSBY2 medium in a 7 day cycle. Jimsonweed suspension and Pettite Havana tobacco suspensions were initiated from callus initiated at DAS and Xanthi suspensions were procured as a sample from Professor Jack Widholm from UIUC, IL. JT-NT1 suspension cells, obtained from Washington University that are maintained in NT1B medium in 7 day cycle were used only for the pectin degradation enzyme study to separate the cells into single cells. The cells were cultured in shake flasks at 25-28° C. in dark on orbital shakers at 150 rpm. […] The NT-1 cell line is widely used and readily available; though, any tobacco suspension cell line is consistent with the practice of the invention. […]
(§2) Cell expansion and separation were observed by light microscopy (with Nomarski and dark field optics). Spherical cells and single cells were counted by using a hemacytometer to determine the degree of cell expansion and separation, respectively. Cell numbers in aggregates were determined by treating with 5% (wt/vol) chromium trioxide for 16 hr and counting cells (Henshaw et. al, 1966). Cell viability was determined by staining cells (Yokoyama et. al, 1997) with fluorescein diacetate (FDA) and propidium iodide (PI) using a fluorescent microscope (Zeiss Photomicroscope). […]

JM cells = assay: Effects of colchicine on growth and cell separation of Jimson weed suspension cells; format: cell-based
Text: BY2 suspension-cultured cells were obtained from Japan tobacco and maintained in LSBY2 medium in a 7 day cycle. Jimsonweed suspension and Pettite Havana tobacco suspensions were initiated from callus initiated at DAS and Xanthi suspensions were procured as a sample from Professor Jack Widholm from UIUC, IL. JT-NT1 suspension cells, obtained from Washington University that are maintained in NT1B medium in 7 day cycle were used only for the pectin degradation enzyme study to separate the cells into single cells. The cells were cultured in shake flasks at 25-28° C. in dark on orbital shakers at 150 rpm. […] Stock concentrations of both the tubulin polymerization inhibitors used in this investigation were dissolved in DMSO to prepare a 0.5 M stock solution. The concentration tested for the pectinase and pectolyase enzymes were in the range of 0.0005% to 0.005%. The tobacco suspension cell lines NT-1 and BY-2, for example, are suitable for the practice of the present invention. […] The NT-1 cell line is widely used and readily available; though, any tobacco suspension cell line is consistent with the practice of the invention. […]
Cell expansion and separation were observed by light microscopy (with Nomarski and dark field optics). Spherical cells and single cells were counted by using a hemacytometer to determine the degree of cell expansion and separation, respectively. Cell numbers in aggregates were determined by treating with 5% (wt/vol) chromium trioxide for 16 hr and counting cells (Henshaw et. al, 1966). Cell viability was determined by staining cells (Yokoyama et. al, 1997) with fluorescein diacetate (FDA) and propidium iodide (PI) using a fluorescent microscope (Zeiss Photomicroscope). […] Calcafluor obtained from Sigma, which is a specific fluorescent dye for cellulose is used in this study, and the cellulose-Calcafluor complexing was observed by fluorescence microscopy (Zeiss Photomicroscope). […]

[1] = test system: Xanthi tobacco suspension; assay: Single cell induction by colchicine in Xanthi suspension; format: cell-based
Text: as §1, §2

BY2 cells = assay: Single cell production by MTI in BY2 cells in glycerol medium; format: cell-based, tobacco; details: glycerol as total carbon source
Method: The effects of Microtubule inhibitors (MTI) on tobacco cell growth in suspension culture were examined. Day seven stationary phase cells (1 ml) were transferred to medium (50 ml) in 250 ml shake flasks (Bokros et al., 1993) containing different concentrations (25 to 1000 nM) of MTI and were grown in cultures for 7 days in dark at 25° C. Both the control and MTI-containing flasks contained a final concentration of 0.5-0.1% (v/v) DMSO. The growth of these chemicals was evaluated in EP12 medium for BY2 cells and NT1B medium for BTI-NT1 cells were the carbon source is substituted with 3% glycerol. The response of these cells was compared with the same medium composition but with 3% sucrose as the Carbon source.

PH suspension cells = assay: Recovery of Petite Havana suspension cells after DAS-PMTI-1 treatment; format: cell-based, tobacco; details: after 7 days at 0.5 mM; after 2 weeks
Text: as §1, §2

| SMILES | reduction in growth (NT1 suspension cells) | cell growth (JM cells; 0.5 mM) | cell viability (FDA and PI) (JM cells; 1 mM, 7 d) | single suspension cells (JM cells; 1 mM, 7 days) | single cell release ([1]; 0.5 mM, 7 d) | single cell release ([1]; 1 mM) | concentration effective for the production of single cells (BY2 cells) | recovery after subculture in the absence of the compound (PH suspension cells) |
| --- | --- | --- | --- | --- | --- | --- | --- | --- |
| COc1cc2c(c(OC)c1OC)-c1ccc(OC)c(=O)cc1[C@@H](NC(C)=O)CC2 [Colchicine] | ~50% | drastically affected | high viability | high degree of single suspension cells | partial release of single cells | Separated single cells |  |  |
| CCOC(=O)COc1nn(-c2ccccc2)c(-c2ccccc2)c1Cl [DAS-PMTI-1] |  |  |  |  |  |  | 5 to 25 nM | recovered as single cells with a low frequency |
